Laboratory results as given in US7045532B2 (Millennium Pharmaceuticals, Inc., priority 1999, dated 2006).
Where two headings read alike, the source gives them in different places.

Biological target: T1, ACE-2 (Homo sapiens, UniProt Q9BYF1)
T1 construct: a stop codon inserted after the serine immediately preceding the transmembrane domain; made in house; host or cells: CHO K1 cells (transient transfection, purified from conditioned medium)
Assay: ACE-2 Competitive Substrate Assay (ACS Assay)
Type: biochemical

[1] = Ki class, compounds tested in 5% DMSO, 12 compound concentrations, Ki=Kiapp/(1+[S]/Km), read-out: Human ACE-2 Activity
[2] = Table 3, very good ACE-2 inhibiting compounds, species not given, read-out: ACE-2 Activity, Ki

T1 sequence (Q9BYF1 18-740 limits assumed): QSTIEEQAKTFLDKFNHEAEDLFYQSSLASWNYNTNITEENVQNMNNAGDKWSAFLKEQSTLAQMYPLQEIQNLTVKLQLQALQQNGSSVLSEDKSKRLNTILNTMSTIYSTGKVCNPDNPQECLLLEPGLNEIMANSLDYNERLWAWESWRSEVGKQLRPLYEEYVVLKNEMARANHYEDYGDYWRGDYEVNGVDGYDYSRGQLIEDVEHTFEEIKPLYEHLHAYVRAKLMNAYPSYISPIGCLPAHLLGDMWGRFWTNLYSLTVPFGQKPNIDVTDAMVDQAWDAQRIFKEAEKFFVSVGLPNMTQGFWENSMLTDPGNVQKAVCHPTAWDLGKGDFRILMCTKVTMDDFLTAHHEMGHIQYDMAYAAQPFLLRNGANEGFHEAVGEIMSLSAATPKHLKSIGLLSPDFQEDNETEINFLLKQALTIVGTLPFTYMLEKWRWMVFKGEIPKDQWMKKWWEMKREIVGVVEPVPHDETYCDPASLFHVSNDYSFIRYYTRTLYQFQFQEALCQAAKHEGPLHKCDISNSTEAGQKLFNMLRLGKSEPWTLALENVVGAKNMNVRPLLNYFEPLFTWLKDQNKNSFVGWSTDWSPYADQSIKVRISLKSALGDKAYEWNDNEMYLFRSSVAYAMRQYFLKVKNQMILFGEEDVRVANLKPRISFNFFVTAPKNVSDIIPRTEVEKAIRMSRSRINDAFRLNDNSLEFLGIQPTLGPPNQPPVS

Row | Structure (SMILES) | Ki [1] | Ki [2] | Ki (Ki class, compounds tested in 5% DMSO, 12 concentrations, read-out: Human ACE-2 Activity)
1 | Cc1cc(C)cc(COc2ccc(C[C@H](N[C@@H](CC(C)C)C(=O)O)C(=O)O)cc2)c1 [KT, 2-[1-Carboxy-2-[4-(3,5-dimethyl-benzyloxy)-phenyl]-ethylamino]-4-methyl-pentanoic acid] | 100 to 500 nM | – | –
2 | CC(C)C[C@H](N[C@@H](Cn1ccn(Cc2ccc(Cl)c(Cl)c2)c1=O)C(=O)O)C(=O)O [KU, (S,S) 2-{1-Carboxy-2-[3-(3,4-dichloro-benzyl)-2-oxo-2,3-dihydro-imidazol-1-yl]ethylamino}-4-methyl-pentanoic acid] | < 100 nM | 50 to 100 nM | –
3 | CC(C)C[C@H](N[C@@H](CC(=O)Nc1nc2ccccc2s1)C(=O)O)C(=O)O [KV, 2-[2-(Benzothiazol-2-ylcarbamoyl)-1-carboxy-ethylamino]-4-methyl-pentanoic acid] | < 100 nM | < 50 nM | –
4 | CC(C)CC(NC(CC(=O)N1CCN(C(c2ccccc2)c2ccc(Cl)cc2)CC1)C(=O)O)C(=O)O (stereo not shown) [KW, 2-(1-Carboxy-3-[4-[(4-chloro-phenyl)-phenyl-methyl]-piperazin-1-yl]-3-oxo-propylamino)-4-methyl-pentanoic acid] | > 500 nM | – | –
5 | COC(=O)[C@H](Cc1cncn1Cc1cc(Cl)cc(Cl)c1)N[C@@H](CC(C)C)C(=O)O [KX, (S,S) 2-{2-[3-(3,5-Dichloro-benzyl)-3H-imidazol-4-yl]-1-methoxycarbonyl-ethylamino}-4-methyl-pentanoic acid] | < 100 nM | < 50 nM | –
6 | COC(=O)[C@H](Cc1cncn1Cc1cc(Cl)cc(Cl)c1)N[C@H](CC(C)C)C(=O)O [KY, 2-[2-[3-(3,5-Dichloro-benzyl)-3H-imidazol-4-yl]-1-methoxycarbonyl-ethylamino]-4-methyl-pentanoic acid] | 100 to 500 nM | – | –
7 | CC1(C)SC(C(=O)O)NC1C(=O)O (stereo not shown) [L, 5,5-Dimethyl-thiazolidine-2,4-dicarboxylic acid] | – | – | > 500 nM
8 | COC(=O)[C@H](Cc1cncn1Cc1cc(Cl)cc(Cl)c1)N[C@H](CC(C)C)C(=O)OCc1ccccc1 [LA, 2-[2-[3-(3,5-Dichloro-benzyl)-3H-imidazol-4-yl]-1-methoxycarbonyl-ethylamino]-4-methyl-pentanoic acidbenzyl ester] | > 500 nM | – | –
9 | CC(C)C[C@H](N[C@@H](Cc1cncn1Cc1cc(Cl)cc(Cl)c1)C(=O)OCc1ccccc1)C(=O)O [LB, (S,S) 2-{1-Benzyloxycarbonyl-2-[3-(3,5-dichloro-benzyl)-3H-imidazol-4-yl]-ethylamino}-4-methyl-pentanoic acid] | > 500 nM | – | –
10 | CCCCOC(=O)[C@H](Cc1cncn1Cc1cc(Cl)cc(Cl)c1)N[C@@H](CC(C)C)C(=O)O [LD, (S,S) 2-{1-Butoxycarbonyl-2-[3-(3,5-dichloro-benzyl)-3H-imidazol-4-yl]-ethylamino}-4-methyl-pentanoic acid] | < 100 nM | – | –
11 | CCCCOC(=O)[C@H](Cc1cncn1Cc1cc(Cl)cc(Cl)c1)N[C@H](CC(C)C)C(=O)O [LE, 2-[1-Butoxycarbonyl-2-[3-(3,5-dichloro-benzyl)-3H-imidazol-4-yl]-ethylamino]4-methyl-pentanoic acid] | > 500 nM | – | –
12 | CC(C)C[C@H](N[C@@H](Cn1ccn(Cc2cc(Cl)cc(Cl)c2)c1=O)C(=O)O)C(=O)O [LF, (S,S) 2-{1-Carboxy-2-[3-(3,5-dichloro-benzyl)-2-oxo-2,3-dihydro-imidazol-1-yl]-ethylamino}-4-methyl-pentanoic acid] | < 100 nM | 50 to 100 nM | –
13 | CC(C)C[C@H](N[C@@H](Cn1ccn(Cc2cc(F)cc(F)c2)c1=O)C(=O)O)C(=O)O [LG, 2-[1-Carboxy-2-[3-(3,5-difluoro-benzyl)-2-oxo-2,3-dihydro-imidazol-1-yl]-ethylamino]-4-methyl-pentanoic acid] | < 100 nM | 50 to 100 nM | –
14 | CC(C)C[C@H](N[C@@H](Cn1ccn([C@@H](C)c2ccccc2)c1=O)C(=O)O)C(=O)O [LH, (S,S)-2-{1-Carboxy-2-[2-oxo-3-(1-phenyl-ethyl)-2,3-dihydro-imidazol-1-yl]-ethylamino}-4-methyl-pentanoic acid] | 100 to 500 nM | – | –
15 | CC(C)C[C@H](N[C@@H](CNC(=O)c1cccc(Cl)c1)C(=O)O)C(=O)O [LI, (S,S)-2-[1-Carboxy-2-(3-chloro-benzoylamino)-ethylamino]-4-methyl-pentanoic acid] | > 500 nM | – | –
16 | CC(C)C[C@H](N[C@@H](CNC(=O)c1ccc(Cl)c(Cl)c1)C(=O)O)C(=O)O [LJ, (S,S)-2-[1-Carboxy-2-(3,4-dichloro-benzoylamino)-ethylamino]-4-methyl-pentanoic acid] | > 500 nM | – | –
17 | COC(=O)[C@H](Cc1cccc(O)c1)N[C@@H](CC(C)C)C(=O)OCc1ccccc1 [LK, 2-[2-(3-Hydroxy-phenyl)-1-methoxycarbonyl-ethylamino]-4-methyl-pentanoic acidbenzyl ester] | > 500 nM | – | –
18 | COC(=O)[C@@H](Cc1cccc(O)c1)N[C@@H](CC(C)C)C(=O)OCc1ccccc1 [LL, 2-[2-(3-Hydroxy-phenyl)-1-methoxycarbonyl-ethylamino]-4-methyl-pentanoic acid benzylester] | > 500 nM | – | –
19 | CC(C)C[C@H](N[C@@H](Cc1coc(-c2ccccc2)n1)C(=O)O)C(=O)O [LM, (S,S)-2-[1-Carboxy-2-(2-phenyl-oxazol-4-yl)ethylamino]-4-methyl-pentanoic acid] | > 500 nM | – | –
20 | CC(C)C[C@H](N[C@@H](Cc1coc(-c2cc(Cl)cc(Cl)c2)n1)C(=O)O)C(=O)O [LN, (S,S)-2-{1-Carboxy-2-[2-(3,5-dichlorophenyl)-oxazol-4-yl]ethylamino}-4-methyl-pentanoic acid] | < 100 nM | 50 to 100 nM | –
21 | CC(C)C[C@H](N[C@@H](Cc1csc(-c2cc(Cl)cc(Cl)c2)n1)C(=O)O)C(=O)O [LO, (S,S)-2-{1-Carboxy-2-[2-(3,5-dichlorophenyl)-thiazol-4-yl]-ethylamino}-4-methyl-pentanoic acid] | 100 to 500 nM | – | –
22 | CC(C)C[C@H](N[C@@H](Cc1ccn(Cc2cc(Cl)cc(Cl)c2)n1)C(=O)O)C(=O)O [LP, (S,S)-2-{1-carboxy-2-[1-(3,5-dichlorobenzyl)-1H-pyrazol-3-yl]-ethylamino}-4-methyl pentanoic acid] | < 100 nM | < 50 nM | –
23 | CC(C)C[C@H](N[C@@H](Cc1cncn1Cc1cc(Cl)cc(Cl)c1)C(=O)OC1CCCC1)C(=O)O [LQ, (S,S) 2-{1-Cyclopentyloxycarbonyl-2-[3-(3,5-dichloro-benzyl)-3H-imidazol-4-yl]-ethylamino}-4-methyl-pentanoic acid] | > 500 nM | – | –
24 | CC(C)C[C@H](N[C@@H](CN1CCN(Cc2cc(F)cc(F)c2)C1=O)C(=O)O)C(=O)O [LR, 2-[1-Carboxy-2-[3-(3,5-difluoro-benzyl)-2-oxo-imidazolidin-1-yl]-ethylamino]-4-methyl-pentanoic acid] | 100 to 500 nM | – | –
25 | CC(C)C[C@H](N[C@@H](Cn1ccn(Cc2ccccc2)c1=O)C(=O)O)C(=O)O [LS, 2-[2-(3-Benzyl-2-oxo-2,3-dihydro-imidazol-1-yl)-1-carboxy-ethylamino]-4-methyl-pentanoic acid] | 100 to 500 nM | – | –
26 | CC(C)C[C@H](N[C@@H](Cc1ccc(OCCc2ccccc2)cc1)C(=O)O)C(=O)O [LT, 2-[1-Carboxy-2-(4-phenethyloxy-phenyl)-ethylamino]-4-methyl-pentanoic acid] | 100 to 500 nM | – | –
27 | CC(C)C[C@H](N[C@@H](Cc1ccc(OC(C)(C)C)cc1)C(=O)O)C(=O)O [LU, 2-[2-(4-tert-Butoxy-phenyl)-1-carboxy-ethylamino]-4-methyl-pentanoic acid] | > 500 nM | – | –
